Results from ChEMBL document CHEMBL1201862, “PubChem BioAssay data set” (2004).
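Compound exposure: 48 hours, 5 concentrations, 96-well plates. GI50 marks 50% less growth.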 Calls of active or inactive are those of the source. Cut-off read from the data, not from the text of the source: active = GI50 up to about 1.1 µM and inactive = higher. Starred links: 1 amine or outer side, 2 acyl side, 3 side chain; linkers in the order of their positions; H or OH if unused. Non-standard residues stand in square brackets, D forms with d. Residues, ends and D or L forms follow the SMILES beside them. *: point of attachment. X47 = CCC(=O)CC1CC(C)CC(C(=O)[*:2])N1[*:1]; X46 = CCCCCCCCC(C)C(=O)*; Aib = CC(C)(N)C(=O)O; X48 = CC(CN(C)CCO)N*

Legend:
Test in all cases: NCI-60 cell line screen, 48 h
A498 = tested on: A498
A549 = tested on: A549
ACHN = tested on: ACHN
COLO 205 = tested on: COLO 205
EKVX = tested on: EKVX
HCC 2998 = tested on: HCC 2998
HL-60 = tested on: HL-60
LOX IMVI = tested on: LOX IMVI
MOLT-4 = tested on: MOLT-4
Malme-3M = tested on: Malme-3M
NCI-H23 = tested on: NCI-H23
NCI-H522 = tested on: NCI-H522
OVCAR-5 = tested on: OVCAR-5
OVCAR-8 = tested on: OVCAR-8
RPMI-8226 = tested on: RPMI-8226
SK-MEL-2 = tested on: SK-MEL-2
SN12C = tested on: SN12C
SNB-75 = tested on: SNB-75
TK-10 = tested on: TK-10
UO-31 = tested on: UO-31

Compound | GI50 (A498) | GI50 (A549) | GI50 (ACHN) | GI50 (COLO 205) | GI50 (EKVX) | GI50 (HCC 2998) | GI50 (HL-60) | GI50 (LOX IMVI) | GI50 (MOLT-4) | GI50 (Malme-3M) | GI50 (NCI-H23) | GI50 (NCI-H522) | GI50 (OVCAR-5) | GI50 (OVCAR-8) | GI50 (RPMI-8226) | GI50 (SK-MEL-2) | GI50 (SN12C) | GI50 (SNB-75) | GI50 (TK-10) | GI50 (UO-31)
CCCCCCCCCCCCCCCCCCNc1ccn(C2OC(COP(=O)(O)OCC3OC(n4ccc(N)nc4=O)C(O)C3O)C(O)C2O)c(=O)n1 (stereo not given) | > 100 µM (inactive) | 8.59 µM (inactive) | 29.9 µM (inactive) | 47.3 µM (inactive) | > 100 µM (inactive) | 38.2 µM (inactive) | 10.2 µM (inactive) | 16.5 µM (inactive) | 2.45 µM (inactive) | > 50 µM (inactive) | 27.5 µM (inactive) | > 37.8 µM (inactive) | 98.6 µM (inactive) | 20 µM (inactive) | > 100 µM (inactive) | > 100 µM (inactive) | 65 µM (inactive) | > 100 µM (inactive) | > 100 µM (inactive) | 42.4 µM (inactive)
N#CC(C#N)=Cc1ccc(Oc2ccccc2)cc1 | > 100 µM (inactive) | > 100 µM (inactive) | 21.3 µM (inactive) | 45.5 µM (inactive) | > 100 µM (inactive) | 97.5 µM (inactive) | 23 µM (inactive) | 15.8 µM (inactive) | 28.6 µM (inactive) | 21.7 µM (inactive) | 23.6 µM (inactive) | 23.7 µM (inactive) | > 100 µM (inactive) | 25.5 µM (inactive) | 18.1 µM (inactive) | 24.3 µM (inactive) | 14.1 µM (inactive) | 25.1 µM (inactive) | 55.5 µM (inactive) | 25.9 µM (inactive)
COc1cc(C(=C2SCCS2)c2nccc3cc(OC)c(OC)cc23)c([N+](=O)[O-])cc1OC | > 100 µM (inactive) | 39.4 µM (inactive) | 29.9 µM (inactive) | 35.3 µM (inactive) | 54 µM (inactive) | > 100 µM (inactive) | 10.5 µM (inactive) | 80.9 µM (inactive) | 21.6 µM (inactive) | 74.3 µM (inactive) | 40.8 µM (inactive) | 36.6 µM (inactive) | > 100 µM (inactive) | > 100 µM (inactive) | 20.8 µM (inactive) | > 100 µM (inactive) | 48.9 µM (inactive) | 45.1 µM (inactive) | > 100 µM (inactive) | 27.2 µM (inactive)
CCCCCCCCC(C)C(=O)N1CCCC1C(=O)N1C(CC(=O)CC)CC(C)CC1C(=O)NC(C)C(=O)NC(C)(C)C(=O)NC(C)(C)C(=O)NC(C(=O)NC(C)C(=O)NC(C)(C)C(=O)NC(C)(C)C(=O)NC(C)CN(C)CCO)C(C)CC (stereo not given) (X46-P[X47]A[Aib][Aib]IA[Aib][Aib]-X48; configuration not given here) | 2 µM (inactive) | < 0.01 µM (active) | 0.0368 µM (active) | 0.0135 µM (active) | < 0.01 µM (active) | 0.0385 µM (active) | < 0.0106 µM (active) | 0.355 µM (active) | 0.08 µM (active) | 1.26 µM (inactive) | < 0.01 µM (active) | < 0.01 µM (active) | 0.889 µM (active) | < 0.01 µM (active) | < 0.0181 µM (active) | 0.369 µM (active) | 0.115 µM (active) | 0.382 µM (active) | 0.09 µM (active) | 0.124 µM (active)
